Like-named read-outs stand apart in the source and are kept apart here.
Key:
[1] = system: LPS induced TNF-α production by human leucocytes (PBMC); assay: Inhibition of LPS induced TNF-a production by human leucocytes in vitro (experimental setup 1); assay type: cell-based; details: human leucocyte suspension
Method: Inhibition of LPS Induced TNF-a Production by Human Leucocytes In Vitro
20 mL human blood is collected in vacutainer tubes containing EDTA. PBMC is isolated using Ficoll-Paque Plus as in Amersham's Instruction 71-7167-00 AD, 2002-06. PBMC is counted using Tryphan Blue Solution (Sigma) and incubated in RPMI 1640, (Applichem), supplemented with 10 mM Hepes (Sigma), 2 mM L-glutamin (Sigma), 0.1% BSA (Sigma) and 50U/50 μg/mL Penicillin/Streptomycin (Sigma) in the concentration 5×10^5 cells/mL. The isolated PBMC is incubated in a humidified 5% CO2, 95% air atmosphere, at 37° C., in 24 well flat-bottomed plates (Corning Incorporated) with medium, 10 ng LPS/mL (Sigma), and test compound. After 18 hours the samples are centrifuged, and TNF-α in the supernatants is measured using Tumour Necrosis Factor Alpha [(h)TNF-α] from Human Biotrak ELISA System (Amersham).
The samples are incubated as following per donor: • PBMC's in RPMI (Time Control) • PBMC's with 10 ng LPS/mL (Vehicle) • PBMC's, 10 ng LPS/mL, 10^−17M a-MSH or a-MSH analogue • PBMC's, 10 ng LPS/mL, 10^−15M a-MSH or a-MSH analogue • PBMC's, 10 ng LPS/mL, 10^−13M a-MSH or a-MSH analogue • PBMC's, 10 ng LPS/mL, 10^−11M a-MSH or a-MSH analogue • PBMC's, 10 ng LPS/mL, 10^−9M a-MSH or a-MSH analogue • PBMC's, 10 ng LPS/mL, 10^−7M a-MSH or a-MSH analogue
All samples are diluted from an initial stock solution between 1.4×10^−4M and 1.8×10^−3M. All solutions are handled in BSA coated vials in order to protect against binding of the compound to the surface of the vials.
Data is presented as mean±SE. The effect of test compounds on LPS induced TNF-a liberation is expressed as percentage of the TNF-a accumulation in the LPS-vehicle group. All comparisons are analysed with Student's unpaired t-test. Differences are considered significant at probability levels (p) of 0.05.

[2] = system: LPS induced TNF-α in plasma; assay: Inhibition of LPS induced TNFa production in rats in vivo (experimental setup 2); design: species or system rat; details: for dose at which the maximal inhibitory effect on TNF-a is achieved: doses 50, 200, 1000 μg/kg tested
Method: Inhibition of LPS Induced TNFa Production in Rats In Vivo
Experimental animals. Female Wistar rats (220-240 g) are obtained from the Charles River, Sulzfeld, Germany, and housed in a temperature- (22-24° C.) and moisture-controlled (40-70%) room with a 12 h light-dark cycle (light on from 6:00 A.M. to 6:00 P.M.). The rats are maintained on a standard rodent diet with 140 mmol/kg of sodium, 275 mmol/kg potassium and 23% protein (Altromin International, Lage, Germany) and have free access to water.
Animal preparation. […] After instrumentation, the animals are housed individually for 7-10 days until the day of the experiment.
Experimental protocol. Prior to the experiments all rats are adapted to the restraining cage used for the experiments by training them for two periods of two hours each. On the day of the experiment, the animal is transferred to a restraining cage, and an intravenous infusion of vehicle solution containing 150 mM glucose is started. The infusion rate is 0.5 ml/h throughout the experiment. After a short adaptation period, infusion of lipopolysaccharide (LPS) is started. LPS (E coli serotype 0127 B8, L 3129, Sigma, St. Louis, USA) is given at a dose of 4 mg/kg body weight delivered as an i.v. infusion over 1 hour. Arterial blood samples of 0.3 ml are taken 60, 90, and 120 minutes after start of the LPS infusion and replaced immediately with heparinized blood from a normal donor rat.
In addition to LPS infusion all rats are treated with a bolus injection of: • Vehicle (0.5 mL isotonic saline); • a-MSH in one of the following doses: 50 μg/kg bw; 200 μg/kg/bw or 1000 μg/kg bw; • Test compound in one of the following doses: 50 μg/kg bw; 200 μg/kg/bw or 1000 μg/kg bw.
Measurement of TNF-α in plasma: The blood samples are collected in a prechilled test tube with 0.5 mM EDTA, pH 7.4, and 20×10^6 IU/ml aprotinin. After centrifugation at 4° C., plasma samples are transferred to pre-chilled test tubes and stored at −20° C. for later measurements of TNF-α. TNF-α in plasma is determined by an ELISA (Biotrak, Amersham, UK).
Statistical analyses. Results are presented as means±SE. A two-way ANOVA for repeated measures is used to test for differences between groups. In case of P<0.05, the differences between corresponding periods are evaluated by unpaired t-tests with Bonferroni's correction of the level of significance.

Substance	dose dependent reduction of LPS induced TNF-a accumulation [1]	inhibitory effect on TNF-a accumulation compared to native a-MSH [1]	reduction of TNF-a accumulation during iv infusion of LPS [2]	inhibitory effect on plasma TNF-a compared to native a-MSH ([2]; iv LPS infusion)	dose at which the maximal inhibitory effect on TNF-a is achieved ([2]; iv LPS infusion) [μg/kg body weight]	inhibitory effect on plasma TNF-a compared to native a-MSH ([2]; iv LPS infusion, listed as SEQ ID NO: 2*)	reduction of TNF-a accumulation during iv infusion of LPS ([2]; listed as SEQ ID NO: 2*)	inhibitory effect on plasma TNF-a compared to native a-MSH ([2]; iv LPS infusion, listed as SEQ ID NO: 17*)	reduction of TNF-a accumulation during iv infusion of LPS ([2]; listed as SEQ ID NO: 17*)	TNF-a concentration in plasma, % of the maximal response (LPS-Vehicle) ([2]; iv LPS infusion, 200 μg/kg body weight iv, 120 minutes after initiation of LPS infusion) [%]	inhibitory effect on plasma TNF-a compared to native a-MSH ([2]; iv LPS infusion, listed as SEQ ID NO: 13*)	reduction of TNF-a accumulation during iv infusion of LPS ([2]; listed as SEQ ID NO: 13*)	inhibitory effect on plasma TNF-a compared to native a-MSH ([2]; iv LPS infusion, listed as SEQ ID NO: 3*)	reduction of TNF-a accumulation during iv infusion of LPS ([2]; listed as SEQ ID NO: 3*)
Ac-Glu-Glu-Glu-Glu-Glu-Glu-Ser-Tyr-Ser-Met-Glu-His-Phe-Arg-Trp-Gly-Lys-Pro-Val-NH2 (Ac-EEEEEESYSMEHFRWGKPV-NH2) [a-MSH analogue #6]	dose dependently reduce	markedly more pronounced	reduce TNF-a accumulation	markedly more pronounced	200	higher degree	significantly inhibit							
Ac-Lys-Lys-Lys-Lys-Lys-Lys-Ser-Ser-Ile-Ile-Ser-His-(D-Phe)-Arg-Trp-Gly-Lys-Pro-Val-NH2 (KKKKKKSSIISHFRWGKPV; HELM PEPTIDE1{[ac].K.K.K.K.K.K.S.S.I.I.S.H.[dF].R.W.G.K.P.V.[am]}$$$$V2.0; SMILES CC[C@H](C)[C@H](NC(=O)[C@H](CO)NC(=O)[C@H](CO)NC(=O)[C@H](CCCCN)NC(=O)[C@H](CCCCN)NC(=O)[C@H](CCCCN)NC(=O)[C@H](CCCCN)NC(=O)[C@H](CCCCN)NC(=O)[C@H](CCCCN)NC(C)=O)C(=O)N[C@H](C(=O)N[C@@H](CO)C(=O)N[C@@H](Cc1c[nH]cn1)C(=O)N[C@H](Cc1ccccc1)C(=O)N[C@@H](CCCNC(=N)N)C(=O)N[C@@H](Cc1c[nH]c2ccccc12)C(=O)NCC(=O)N[C@@H](CCCCN)C(=O)N1CCC[C@H]1C(=O)N[C@H](C(N)=O)C(C)C)[C@@H](C)CC) [a-MSH analogue #5]	dose dependently reduce	markedly more pronounced	reduce TNF-a accumulation	markedly more pronounced	200			higher degree	significantly inhibit					
Ac-Lys-Lys-Lys-Lys-Lys-Lys-Ser-Ser-Ile-Ile-Ser-His-Phe-Arg-Trp-Gly-Lys-Pro-Val-NH2 (Ac-KKKKKKSSIISHFRWGKPV-NH2) [a-MSH analogue #4]	dose dependently reduce	markedly more pronounced	reduce TNF-a accumulation	markedly more pronounced	200					12±2	higher degree	significantly inhibit		
Ac-Lys-Lys-Lys-Lys-Lys-Lys-Ser-Tyr-Ser-Met-Glu-His-Phe-Arg-Trp-Gly-Lys-Pro-(D-Val)-NH2 (KKKKKKSYSMEHFRWGKPV; HELM PEPTIDE1{[ac].K.K.K.K.K.K.S.Y.S.M.E.H.F.R.W.G.K.P.[dV].[am]}$$$$V2.0; SMILES CSCC[C@H](NC(=O)[C@H](CO)NC(=O)[C@H](Cc1ccc(O)cc1)NC(=O)[C@H](CO)NC(=O)[C@H](CCCCN)NC(=O)[C@H](CCCCN)NC(=O)[C@H](CCCCN)NC(=O)[C@H](CCCCN)NC(=O)[C@H](CCCCN)NC(=O)[C@H](CCCCN)NC(C)=O)C(=O)N[C@@H](CCC(=O)O)C(=O)N[C@@H](Cc1c[nH]cn1)C(=O)N[C@@H](Cc1ccccc1)C(=O)N[C@@H](CCCNC(=N)N)C(=O)N[C@@H](Cc1c[nH]c2ccccc12)C(=O)NCC(=O)N[C@@H](CCCCN)C(=O)N1CCC[C@H]1C(=O)N[C@@H](C(N)=O)C(C)C) [a-MSH analogue #7]	dose dependently reduce	markedly more pronounced	reduce TNF-α accumulation	markedly more pronounced	200								higher degree	significantly inhibit
